{"source": "patent US7544768B2", "about": "“Peptides for inducing apoptosis in tumor cells” (Deutsches Krebsforschungszentrum Stiflung des Offentlichen …, priority 2002, dated 2009)", "assay_in_all_cases": "Colony formation assay, transfected expression vectors", "format_in_all_cases": "cell-based", "key": {"MeWo (melanoma cells)": {"tested_on": "MeWo (melanoma cells)", "conditions": "nucleic acid coding for peptide transfected", "description": "(§1) The nucleic acids coding for the peptides of TABLE 3 were cloned into mammalian expression vectors and transfected into different cells to observe their further growth. By using a HIS-tag it was possible to verify that all peptide sequences could be expressed."}, "[1]": {"tested_on": "livin-negative C33a cells", "conditions": "nucleic acid coding for peptide transfected; FIG. 3", "description": "(§2) Expression vectors bearing the nucleic acid coding for peptide number 75 (corresponds to SEQ ID No: 127 or number 41 of TABLE 2) or bearing the nucleic acid coding for control peptide were introduced in HeLa cells and livin-negative C33a cells. The cells were selected for stable transfectants.\nas §1"}, "[2]": {"tested_on": "livin-expressing HeLa cells", "conditions": "nucleic acid coding for peptide transfected; FIG. 3", "description": "as §2, §1"}}}
{"substance": "GSRCIRRRISILFFVFRVLRSRRVLRSAEIYES* (randomized peptide that bind to particular IAPs) [compound 75]", "values": [{"measurement": "growth of MeWo (melanoma cells)", "setting": "MeWo (melanoma cells)", "result": "blocked the growth"}, {"measurement": "growth of livin-negative C33a cells", "setting": "[1]", "result": "not affected"}, {"measurement": "growth of livin-expressing HeLa cells", "setting": "[2]", "result": "blocked the growth"}]}
